Results: US10471030B2, “Immunomodulatory and differentiating function selective retinoid and rexinoid compounds in combination with immune modulators for cancer immunotherapy” (Io Therapeutics, Inc., priority 2017, dated 2019)

Assays:
MM cells = test: surface CD138 expression of MM cells (flow cytometry); format: cell-based, human; conditions: 1 μM
Procedure: (§1) 24-well plates were coated with 0.1% gelatin in PBS for 30 min at 37° C. The gelatin solution was removed, and the stromal cells were cultured overnight at a density of 5×10^4 cells/well to obtain a confluent monolayer. At that time, MM cell lines or primary MM cells (1×10^5 in 2 ml) were added to the stroma cultures. The stroma cocultures were incubated at 37° C. in RPMI containing 10% FCS, L-glutamine, and P/S, with or without AGN194310 (1 μM for 5 days), R115866 (1 μM for 5 days), IRX5183 (1 μM for 5 days), or BTZ (2.5 nM for 48 hr).
Following treatment, MM cells were collected, washed with PBS, and stained for 15 min at room temperature with phycoerythrin-conjugated (PE-conjugated) anti-CD138. Cells were washed to remove unbound antibody and evaluated in a FACSCalibur system (BD Biosciences). Stromal cells were identified by GFP expression, and viable cells were identified using 7-aminoactinomycin D (7-AAD). To calculate cell numbers, live GFP-cells were normalized to calibration beads.
Expression of CD138 is a hallmark of normal PC differentiation as well MM PCs.

[1] = tested on: MM cell lines and MM CD138+ primary cells; test: BTZ sensitivity of MM cells, clonogenic or cellular recovery, liquid or BM stroma; format: cell-based, human; conditions: for BTZ resistance after separation from BM stroma: H929 cells, 5-day stroma co-culture, fresh media 0 to 48 hr; for sensitivity of MM cells to BTZ: BTZ 2.5 nM for 48 hr
Procedure: as §1
MM cells were separated from BM stromal cells by gently pipetting several times around the well. Detached cells were centrifuged, resuspended in fresh media, and incubated in a 24-well plate for 1 hr at 37° C. During this short incubation period, contaminating stromal cells attached to the well, while MM cells remained in suspension. MM cells were then recovered by gently pipetting. This protocol was used for qRT-PCR and CFU coculture experiments. The purity achieved using this protocol was confirmed by flow cytometry to be 98%-99% MM cells and less than 2% contaminating stroma.
After treatment, MM cells were collected, washed with PBS, and plated at a density of 5,000 cells/ml in 1 ml of 1.32% methylcellulose supplemented with 30% FBS, 10% BSA, L-glutamine, P/S, and 0.1 mM β-ME. Cells were plated in triplicate in 35-mm culture dishes, incubated at 37° C., and scored for the presence of colonies 14 days later.
To determine whether decreased retinoid signaling contributes to BTZ resistance within the BM niche, MM cell lines and MM CD138+ primary cells were incubated with BM stroma for 5 days, followed by BTZ treatment.
Strategies to overcome microenvironment-dependent chemoprotection have focused on mobilization of cancer cells from the BM niche into the peripheral circulation. It was analyzed whether the change in phenotype and subsequent BTZ resistance of MM cells were lost upon separation from the BM stroma, a process that mimics mobilization. To this end, H929 cells were separated from BM mesenchymal cells following a 5-day stroma co-culture, incubated in fresh media (RPMI with 10% FBS) for 0 to 48 hr, and then treated with BTZ. […] Thus, microenvironment-dependent BTZ resistance induced by the change in MM cell phenotype may not immediately be reversed by tumor mobilization.

[2] = tested on: MM H929 cell lines and MM CD138+ primary cells; test: mRNA expression of B cell and PC markers in MM cells, liquid or BM stroma co-culture (qRT-PCR); format: cell-based, human; conditions: 1 μM for 5 days; for expression of differentiation markers: liquid conditions (absence of stroma)
Procedure: as §1
(§2) Total RNA was extracted using the RNeasy Mini Kit (QIAGEN) according to the manufacturer's instructions. cDNA was synthesized by reverse transcription using the iScript cDNA Synthesis Kit (Bio-Rad). qRT-PCR was performed with iTaq SYBR Green Supermix (Bio-Rad) using sequence specific primers. Gene expression was normalized to GAPDH, and relative quantification was calculated using ΔΔCt. All experiments were performed in duplicate and run on the Bio-Rad CFX96 machine.
The BM microenvironment (also called “niche”) limits PC differentiation by modulating retinoid signaling. A population of MM progenitors, phenotypically similar to B cells, is intrinsically resistant to BTZ and contributes to MRD and relapse. To investigate whether the BM niche plays a role in determining the phenotype of MM cells, the mRNA expression of B cell and PC markers in MM H929 cell lines (FIGS. 3A-D) and MM CD138+ primary cells (FIGS. 3E-H) was analyzed following co-culture with mouse BM stroma using human-specific primers. […] In contrast, co-culture of MM cells with BM stroma decreased the mRNA expression of B lymphocyte-induced maturation protein 1 (BLIMP1) and spliced X box-binding protein 1 (XBP1s) (FIG. 3B, C, F, G), which are critical mediators of PC differentiation.
The BM niche regulates hematopoietic stem cell (HSC) differentiation by expressing the retinoid-inactivating enzyme CYP26. CYP26 enzymes were highly expressed in BM mesenchymal cells, while their expression was barely detectable in MM cells. Since retinoid signaling promotes PC differentiation and potentiates Ig secretion, it was determined whether stromal CYP26 is responsible for inducing a B cell phenotype in MM cells. To this end, co-culture conditions were treated with the CYP26 inhibitor R115866 (R115) or the CYP26-resistant RA receptor α-selective (RARα-selective) retinoid IRX5183 (IRX).

[3] = tested on: Naive CD4+ CD25− FoxP3− cells; test: Treg cell differentiation from naive T cells in vitro (FoxP3-GFP, flow cytometry); format: cell-based, mouse; conditions: in vitro assay; data not shown
Procedure: (§3) To determine whether a RARα agonist could affect T cell differentiation, T cells were incubated with a RARα agonist to determine its effect on Foxp3 expression. Naive CD4^+ CD25^− FoxP3^− cells were purified from a Foxp3-GFP mouse using flow cytometry by sorting and isolating based upon a GFP^− phenotype. These cells were activated polyclonally with αCD3 in vitro in the presence of IL-2 and TGF-β. These cells were then cultured in media with various concentrations of compound IRX5183 (a RARα agonist) and the expression of FoxP3-GFP was analyzed by flow cytometry. The RARα agonist compound IRX5183 enhanced differentiation of immunosuppressive Treg cells and inhibited differentiation of inflammatory TH17 cells from naïve T cells in vitro (Table 2).

CD4+ T cells = test: in vivo T cell differentiation in mice (FoxP3 expression in CD4+ T cells of blood and spleen); set-up: species or system mouse; conditions: in vivo assay; data not shown
Procedure: To expand on the finding above, the in vivo effects of a RARα agonist on T cell differentiation was evaluated in a mouse model. Mice were treated with 100 μg of compound IRX5183 or an equivalent volume of DMSO (vehicle control) every other day for 10 days. Lymphocytes from the blood and spleen were then isolated and FoxP3 expression in CD4^+ T cells was assessed.

[4] = tested on: Naive CD4+ CD25− FoxP3− cells; test: Th17 cell differentiation from naive T cells in vitro; format: cell-based, mouse; conditions: in vitro assay; data not shown
Procedure: as §3

B16F10 tumor cells = test: survival of C57BL/6 mice engrafted with B16F10 tumor cells; format: in vivo; conditions: at 50 days; 10 nM RARγ agonist; vehicles only 0%
Procedure: The anti-tumor effects of anti-CTLA-4 antibody treatment combined with 10 nM RAR ? agonist (AGN204647 (IRX4647)) are examined in C57BL/6 mice engrafted with B16F10 tumor cells. […] The survival rate of the mice treated with anti-CTLA-4 antibody alone is 40% at 50 days while the mice treated with RAR ? agonist alone have a 30% survival in the same time.

Kasumi-1 cells = test: CFU experiments off and on stroma, Kasumi-1 cells; format: cell-based; conditions: 10^−6 M ATRA, IRX5183, or 10^−7 M AM80
Text: (§4) Data across three independent experiments.

OCI-AML3 cells = test: CFU experiments off and on stroma, OCI-AML3 cells; format: cell-based; conditions: 10^−6 M ATRA, IRX5183, or 10^−7 M AM80
Text: as §4

NB4 cells = test: CFU experiments off and on stroma, NB4 cells; format: cell-based; conditions: 10^−7 M ATRA, IRX5183, or 10^−8 M AM80
Text: as §4

[5] = tested on: H929 luciferase+ (Luc+) cells; test: systemic MM xenograft, bioluminescence; format: in vivo, NSG mice; conditions: monotherapy, 4 weeks; BTZ 0.5 mg/kg i.p. twice weekly, IRX 10 mg/kg once daily
Procedure: For the systemic MM model, 2×10^6 Luc+/GFP+ H929 cells were injected via the tail vein into 16-week-old male NSG mice. After engraftment, as determined by an exponential increase in bioluminescence, mice were treated with BTZ (0.5 mg/kg i.p.) twice weekly and with IRX (10 mg/kg) once daily. Tumor burden was assessed by bioluminescence, as above.
To test whether retinoids can enhance BTZ activity in MM, a systemic MM xenograft was developed by injecting 2×10^6 H929 luciferase+ (Luc+) cells via the tail vein of non-obese, diabetic, severe combined immunodeficiency IL-2 receptor γ-KO (NSG) mice. The animals were randomized to receive IRX, BTZ, or a combination of both, and disease burden was followed weekly by bioluminescence imaging (FIG. 6).

H929 Luc+ cells = test: subcutaneous xenograft model of MM-niche interactions with WT or Smo-KO stroma, bioluminescence; format: in vivo, NSG mice; conditions: BTZ 0.5 mg/kg i.p. twice weekly
Procedure: 1×10^6 H929 Luc+ cells and 1×10^6 mouse BM stromal cells were resuspended in 100 μl […]®, diluted with RPMI (1:1), and injected subcutaneously into 16-week-old male NSG mice. After 4 days, treatment with BTZ (0.5 mg/kg i.p. twice weekly) and IRX (10 mg/kg i.p. daily) was initiated. Tumor burden was assessed by bioluminescence using the In Vivo Imaging System (PerkinElmer). For imaging, mice were exposed to 120 mg/kg D-luciferin via intraperitoneal injection […] before imaging and were anesthetized using isoflurane. Images were analyzed with Living Image Software, version 2.5 (PerkinElmer), and data were quantified as photons/second.
To study to what extent an RA-low environment created by the BM stroma and enhanced by MM cells via paracrine Hedgehog signaling contributes to BTZ resistance, a xenograft model of MM-niche interactions was developed. Each mouse carried 2 subcutaneous tumors consisting of H929 Luc+ cells and either WT (anterior tumors) or Smo-KO stroma (posterior tumors). Mice were treated with IRX (10 mg/kg i.p. daily), BTZ (0.5 mg/kg i.p. twice weekly), or a combination of both. The growth of tumors bearing WT or Smo-KO stroma was not different in untreated or IRX-treated groups (FIGS. 9 and 10). […] While some tumors in the treatment group receiving combined IRX and BTZ appeared to have regressed completely, even after anatomical study, this was not the case for all the mice in this group.

CYP26A1 = test: stromal CYP26A1 expression in BM stromal cells (qRT-PCR); format: cell-based; conditions: for CYP26A1 expression on BM stromal cells: soluble factors tested
Procedure: as §2

With `CCc1ccc(C2=CC(C)(C)Sc3ccc(C#Cc4ccc(C(=O)O)cc4)cc32)cc1` [AGN194310] the “surface CD138 expression” value (MM cells; without stroma) was “markedly decreased”, the “BTZ sensitivity of MM cells” value ([1]; liquid, 1 μM for 5 days, then BTZ) was “decreasing BTZ sensitivity” and the “expression of differentiation markers” value [2] was “mimicked the changes induced by BM stromal cells”.

In the case of `CCOc1c(Br)cc(C(=O)Nc2ccc(C(=O)O)cc2)cc1C(=O)c1ccc(C)cc1` [AGN196996], the Treg cell numbers [3] is reported as “decreases Treg cell numbers”, the Th17 cell numbers (CD4+ T cells) is reported as “increases Th17 cell numbers” and the Treg cell numbers (CD4+ T cells) is reported as “decreases Treg cell numbers”. The Th17 cell numbers [4] was “increases Th17 cell numbers”.

In the case of `CC1(C)CCC(C)(C)c2cc(C(/C=C/c3cccc(C(=O)O)c3)=N/O)ccc21` [AGN204647], the survival rate (B16F10 tumor cells) is reported as 30%.

With `CC1(C)CCC(C)(C)c2cc(NC(=O)c3ccc(C(=O)O)cc3)ccc21` [AM80, 4-[(5,6,7,8-tetrahydro-5,5,8,8-tetramethyl-2-naphthalenyl)carbamoyl]benzoic acid] the “clonogenic growth (CFU)” value (Kasumi-1 cells) was “decrease in clonogenic growth compared to control”, the “clonogenic growth (CFU)” value (OCI-AML3 cells) was “decrease in clonogenic growth compared to control” and the “clonogenic growth (CFU)” value (NB4 cells) was “decrease in clonogenic growth compared to control”.

`CC1=C(/C=C/C(C)=C/C=C/C(C)=C/C(=O)O)C(C)(C)CCC1` [ATRA, all-trans retinoic acid] was tested, and the “clonogenic growth (CFU)” value (Kasumi-1 cells) was “stroma blockage”, the “clonogenic growth (CFU)” value (OCI-AML3 cells) was “stroma blockage” and the “clonogenic growth (CFU)” value (NB4 cells) was “stroma blockage”.

With `CC(C)C[C@H](NC(=O)[C@H](Cc1ccccc1)NC(=O)c1cnccn1)B(O)O` [BTZ, bortezomib] the “tumor burden (bioluminescence)” value [5] was “decreased tumor growth compared with untreated controls”, the “BTZ resistance after separation from BM stroma” value ([1]; then BTZ) was “remained partially resistant to BTZ for up to 48 hr” and the “sensitivity of MM cells to BTZ” value ([1]; absence of BM stroma (liquid)) was “highly sensitive”. The “sensitivity of MM cells to BTZ” value ([1]; after 5 days incubation with BM stroma) was “induced BTZ resistance”, the “response of tumors carrying Smo-KO stroma (bioluminescence)” value (H929 Luc+ cells) was “significant response” and the “response of tumors with WT stroma (bioluminescence)” value (H929 Luc+ cells) was “refractory to BTZ treatment”.

`CCC(CC)C(c1ccc(Nc2nc3ccccc3s2)cc1)n1cncn1` (stereo not shown) [Compound R115866] was tested, and the “surface CD138 expression” value (MM cells; BM stromal cell co-cultures) was “restored CD138 expression”, the “stroma-induced BTZ resistance” value ([1]; BM stroma with 1 μM test agent for 5 days, then BTZ 2.5 nM for 48 hr) was “overcome” and the “BTZ resistance after separation from BM stroma” value ([1]; then BTZ) was “prevented the development of a BTZ-resistant phenotype”. For the same molecule, the “mRNA expression of BCL6, BLIMP1, XBP1s, CHOP markers” value ([2]; BM stroma co-cultures) was “restored all markers to levels comparable to those of liquid control conditions” and the “expression of differentiation markers” value [2] was “did not significantly affect”.

For `CC1=C2C[C@H]3[C@@H](CC=C4C[C@@H](O)CC[C@@]43C)[C@@H]2CC[C@]12O[C@@H]1C[C@H](C)CN[C@H]1[C@H]2C` [cyclopamine], the “stromal Cyp26a1 upregulation by MM cells” value (CYP26A1; co-culture with MM cells) was “partially overcame”.

IL-6: cytokine, soluble factor tested was tested, and the “CYP26A1 expression on BM stromal cells” value (CYP26A1) was “no significant effects”.

With TNF-α the “CYP26A1 expression on BM stromal cells” value (CYP26A1) was “no significant effects”.
